# Measurements from patent US20060246047A1, “Peptide wirh apoptosis-inhibiting activity” (priority 2003, published 2006).
# T1: Bak (Homo sapiens, UniProt Q16611)
# T1 construct: expressed in transfected cells; host or cells: HEK 293T
# T1 sequence (Q16611 1-211): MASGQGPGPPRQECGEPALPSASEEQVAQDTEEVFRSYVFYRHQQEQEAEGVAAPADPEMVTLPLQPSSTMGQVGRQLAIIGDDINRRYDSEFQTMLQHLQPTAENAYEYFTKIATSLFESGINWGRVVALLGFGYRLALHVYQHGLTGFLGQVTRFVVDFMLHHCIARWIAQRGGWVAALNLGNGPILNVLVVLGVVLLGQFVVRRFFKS
# Assays:
# HeLa cells [1] = assay: STS-induced apoptosis in Hela cells, modified TAT-ART peptides (Example 8); format: cell-based; conditions: 100, 300 or 1000 nM, 0.2 μM STS, 24 hours
# Description: The modified TAT-ART1320 peptides used were TAT-ART1420 (SEQ ID NO: 25) and TAT-ART1320P13V (SEQ ID NO: 26), synthesized with a peptide synthesizer.
# Hela cells (1×10^5 cells) were seeded in 12-well plates and incubated for 24 hours. Subsequently, cells were pre-treated for 1 hour by adding TAT-ART1320 or its modified peptide at a final concentration of 100, 300, or 1000 nM, followed by the addition of 0.2 μM STS and incubation for 24 hours. Cells without the addition of TAT-ART1320 or STS, together with cells without the addition of TAT-ART1320, were prepared as controls. Following incubation, cell death was evaluated by the trypan blue exclusion method.
# Bax [2] = biological target: T2, Bax (Homo sapiens, UniProt Q07812); assay: Apoptosis-suppressive activity, summary statements without a stated test; format: cell-based; parameters: expressed in transfected cells; host or cells: HEK 293T; conditions: summary statement
# Bax [3] = biological target: T2, Bax; assay: STS-induced mitochondrial translocation of Bax in COS7 cells, confocal microscopy; format: cell-based; parameters: expressed in transfected cells; conditions: 1000 nM pretreatment 1 hour, COS7 with pCI-myc-Bax
# Description: It is considered that, in order for Bax to induce apoptosis, it is essential for Bax to localize to mitochondria. Thus, the effect of TAT-ARTI320 on STS-induced mitochondrial translocation of Bax was examined.
# COS7 cells (4×10^4 cells) were seeded in 12-well plates and incubated for 24 hours and then transfected with 1 μg of the pCI-myc-Bax gene. Subsequently, after further incubation for 23 hours, cells were pretreated for 1 hour with 1000 nM TAT-ART1320. Cells without TAT-ART1320 pretreatment were also prepared as controls. Further, […] of STS and 100 nM MitoTracker Orange (manufactured by Molecular Probes) were added and, after one hour, cells were fixed with 3% formaldehyde solution. Cells without the addition of STS were also prepared as controls.
# HeLa cells [4] = assay: STS-induced Bax-dependent apoptosis in HeLa cells, trypan blue exclusion; format: cell-based; conditions: 0.2 μM STS, 24 hours
# Description: (§1) It is known that apoptosis induced by staurosporine (STS) is Bax-dependent. Thus, it was examined whether TAT-ART1320 can suppress STS-induced apoptosis.
# (§2) HEK 293T cells or HeLa cells, at 5×10^4 cells each, were seeded in 12-well plates and incubated for 24 hours. Subsequently, cells were pre-treated by adding TAT-ART1320 at a final concentration of 100, 300, or 1000 nM, followed by further incubation for 24 hours. Then STS was added to HEK 293T cells and HeLa cells at 0.5 μM and 0.2 μM, respectively, followed by incubation for 24 hours. Cells without the addition of TAT-ART1320 or STS, together with cells without the addition of TAT-ART1320, were prepared as controls. Following incubation, cell death was evaluated by the trypan blue exclusion method.
# HEK 293T cells = assay: STS-induced Bax-dependent apoptosis in HEK 293T cells, trypan blue exclusion; format: cell-based; conditions: 0.5 μM STS, 24 hours
# Description: as §1, §2
# [5] = tested on: brain ischemia model gerbils; assay: Brain ischemia model, 4 min bilateral common carotid artery occlusion and reperfusion; format: in vivo, gerbil
# Description: Next, to confirm the effect of the peptide according to the present invention on apoptosis-induced diseases, such as neurodegenerative diseases, using a model of brain ischemia induced by a 4 min occlusion of the bilateral common carotid arteries in gerbils the influence of TAT-ART1320 ([…]) on the neurological symptom scores after reperfusion and on delayed neuronal death in hippocampus four days after reperfusion.
# Thirteen-week-old male gerbils (SPF, Japan SLC, Inc.) were kept over a week in a barrier system animal room with controlled temperature (23±2° C), humidity (55±15%), ventilation (at least 5 air changes/hour), and light (12 hour light period, 6:30 a.m. to 6:30 p.m.). The gerbils thus maintained, weighing 60 to 80 g, were used as test animals. Food and water were provided at libitum.
# Under ether anesthesia, test animals underwent a midline skin incision in the neck to expose the bilateral internal carotid arteries (the ether anesthesia was stopped on exposure of the bilateral internal carotid arteries), which were occluded bilaterally with artery forceps, to induce brain ischemia. Reperfusion was initiated by removing the artery forceps 4 min after occlusion and the skin was sutured, immediately followed by administration of TAT-ART1320 or saline. Subsequently, test animals were warmed under an infrared lamp until their activity was recovered.
# TAT-ART1320 was prepared for administration by dissolving 3 or 30 mg of TAT-ART1320 in 10 ml of saline. This solution was administered at a dose of 10 ml/kg BW. Immediately after reperfusion TAT-ART1320 was intravenously injected into the caudal vain of each animal at 3 mg/kg BW or 30 mg/kg BW, followed by another intravenous injection after 5 hours. (The animals (n=13) receiving TAT-ART1320 at 3 mg/kg BW and animals receiving TAT-ART1320 at 30 mg/kg BW were called the 3 mg/kg group and the 30 mg/kg group, respectively.) The next day, intravenous injection was switched to subcutaneous injection and the same doses of TAT-ART1320 were administered twice at intervals of 5 hours, followed by once-daily SC injection. Animals (n=13: control group) receiving only saline were used as controls.
# Immediately after reperfusion and subsequent administration of TAT-ART1320 or saline, observation of symptoms of the central nervous system (disturbance of consciousness, convulsions, suppression of motor responses, blepharoptosis) was started. […]
# The bilateral hippocampal regions were excised from the fixed brain and 4 μm paraffin sections (about 1.5 mm posterior from the bregma) were prepared from each hippocampus. […] Subsequently, the length of bilateral hippocampal CA1 regions was measured with an image analyzer (MacSCOPE). Further, the number of survived neurons in each section was counted under a microscope. […]
# Bax [6] = biological target: T2, Bax; assay: Apoptosis induced by overexpression of myc-Bax in HEK 293T cells, trypan blue exclusion; format: cell-based; parameters: expressed in transfected cells; host or cells: HEK 293T; conditions: 100, 300 or 1000 nM, 24 hours
# Description: (§3) HEK 293T cells (1×10^5 cells) were seeded in 12-well plates and incubated for 24 hours. Subsequently, myc, myc-Bax, or myc-Bak was overexpressed within cells by introducing pCI-myc, pCI-myc-Bax, or pCI-myc-Bakplasmid respectively into HEK 293 T cells. After incubation for 17 hours, TAT-ART1320 was added at a final concentration of 100, 300, or 1000 nM, followed by further incubation for 24 hours. Cells without the addition of TAT-ARTI320 were used as controls. Following incubation, cell death was evaluated by the trypan blue exclusion method.
# Bak = biological target: T1, Bak; assay: Apoptosis induced by overexpression of myc-Bak in HEK 293T cells, trypan blue exclusion; format: cell-based; conditions: 100, 300 or 1000 nM, 24 hours
# Description: as §3
# Bax [7] = biological target: T2, Bax; assay: Bax-induced apoptosis in pCI-Bax-transfected HEK 293T cells with HTA1320 added, trypan blue exclusion; format: cell-based; parameters: expressed in transfected cells; host or cells: HEK 293T; conditions: survival after 40 hours
# Description: It was examined whether or not HTAI320, prepared in Example 3, inhibits Bax-induced apoptosis-promoting activity. HEK 293T cells were plated at 1×10^5 cells per well on 12-well plastic dishes and incubated overnight. Subsequently, cells were transfected with pCI-Bax by lipofection using opti-MEM (manufactured by GibcoBRL) and Lipofectamine (manufactured by GibcoBRL). After five hours, the medium was changed and HTA1320 were added at various concentrations. Subsequently, the cell survival rate after 40 hours was evaluated by the trypan blue exclusion method. As a result, HTA1320 inhibited Bax-induced apoptosis-promoting activity.
# T2 sequence (Q07812 whole entry): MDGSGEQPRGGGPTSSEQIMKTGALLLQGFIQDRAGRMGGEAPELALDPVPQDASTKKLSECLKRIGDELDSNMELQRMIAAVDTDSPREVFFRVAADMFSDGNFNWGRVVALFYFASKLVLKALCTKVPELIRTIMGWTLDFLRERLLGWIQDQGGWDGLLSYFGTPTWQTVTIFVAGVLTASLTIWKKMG
molecule,measurement,setting,value
VTSSEQIM (ART1320P13V) [SEQ ID NO: 7],suppression of STS-induced apoptosis compared with TAT-ART1320 (SEQ ID NO: 2 peptide),HeLa cells [1],stronger suppressive activity
"TAT-ART1420: modified TAT-ART1320 peptide, ART positions 14 to 20, synthesized with a peptide synthesizer (YGRKKRRQRRRTSSEQIM; TAT-ART1420)",suppression of STS-induced apoptosis compared with TAT-ART1320 (SEQ ID NO: 2 peptide),HeLa cells [1],equal to or greater than that of TAT-ART1320
"SEQ ID NO: 1: peptide from threonine in the 14th position to methionine in the 20th position of the ART sequence (TSSEQIM; Inventor Imoto, Masaya Inventor Tabe, Hirokazu Inventor Tashiro, Etsu Inventor OHMORI, Yusuke; listed as Homo sapiens)",suppression of STS-induced apoptosis compared with TAT-ART1320 (SEQ ID NO: 2 peptide),HeLa cells [1],stronger suppressive activity
same,apoptosis-suppressive activity,Bax [2],stronger apoptosis- suppressive activity than the peptide (SEQ ID NO: 2)
"TAT-ART1320: HIV-TAT sequence linked to ART positions 13 to 20, synthesized with a peptide synthesizer (YGRKKRRQRRRPTSSEQIM; TAT-ART1320)",STS-induced mitochondrial localization / translocation of Bax,Bax [3],Bax did not localize to mitochondria
same,concentrations suppressing STS-induced apoptosis,HeLa cells [4],100 to 1000 nM
same,concentrations suppressing STS-induced apoptosis,HEK 293T cells,1 to 100 nM
same,change of neurological symptoms scores with dose,[5]; 3 mg/kg and 30 mg/kg groups,dose-dependent decrease
same,number of survived neurons per unit length in hippocampal CA1,"[5]; 30 mg/kg group, four days after reperfusion, control 15.4±5.2",74.5±23.1
same,neurological symptoms score,"[5]; 30 mg/kg group, i.v. then s.c., control 8.2±1.4, P<0.05",2.8±0.6
same,neuronal death in hippocampal CA1,"[5]; 3 and 30 mg/kg groups, four days after reperfusion",significantly suppresses neuronal death
same,inhibition of apoptosis induced by overexpression of Bax,Bax [6],inhibits
same,inhibition of apoptosis induced by overexpression of Bak,Bak,cannot inhibit
SEQ ID NO: 2: peptide from proline in the 13th position to methionine in the 20th position of the ART sequence (PTSSEQIM; listed as Homo sapiens),STS-induced mitochondrial localization / translocation of Bax,Bax [3],effect of suppressing SIS-induced mitochondrial translocation of Bax
same,apoptosis-suppressive activity,Bax [2],strong apoptosis-suppressive activity
"HTA1320: E. coli-expressed peptide of ART positions 13 to 20 with HIV-Tat sequence and His sequence (protein, His-Tat-ART13/20(HTA1320)) MRGSHHHHHHGMASMTGGQQMGRDLYDDDDKDRWIRPRDLQLVPWYGRKKRRQRRRPTSSEQIM",apoptosis-suppressive activity at low concentrations versus high concentrations,Bax [7]; low concentrations,almost equivalent to that at high concentrations
same,inhibition of Bax-induced apoptosis-promoting activity,Bax [7]; various concentrations,inhibited
